The record followed here is patent US8309584B2, “Sulfur containing pyrazole-heterocycle derivatives as cannabinoid CB1 receptor antagonists” (Green Cross Corporation, priority 2008, dated 2012).

The target of the assay is T1, rat CB-1 receptor (Rattus norvegicus, UniProt P20272).
T1 construct: The tissue obtained from the brain of SD rats was homogenized; from tissue; host or cells: SD rat brain membrane homogenate
T1 sequence (P20272 whole entry): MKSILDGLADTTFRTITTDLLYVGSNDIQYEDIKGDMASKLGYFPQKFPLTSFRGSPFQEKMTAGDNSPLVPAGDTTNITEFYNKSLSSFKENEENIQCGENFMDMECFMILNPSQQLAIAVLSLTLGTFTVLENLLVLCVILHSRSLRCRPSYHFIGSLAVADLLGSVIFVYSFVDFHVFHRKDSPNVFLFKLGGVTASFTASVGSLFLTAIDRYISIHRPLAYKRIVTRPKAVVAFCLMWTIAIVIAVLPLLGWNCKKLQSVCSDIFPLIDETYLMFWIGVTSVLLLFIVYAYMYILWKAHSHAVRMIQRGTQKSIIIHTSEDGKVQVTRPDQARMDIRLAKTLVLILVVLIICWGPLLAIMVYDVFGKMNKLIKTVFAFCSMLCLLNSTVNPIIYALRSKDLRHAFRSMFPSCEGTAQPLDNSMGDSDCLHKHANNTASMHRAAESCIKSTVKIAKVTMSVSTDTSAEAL
Nature of the assay: rat cannabinoid-1 receptor (CB1R) binding affinity assay. The settings on record: [3H]CP-55940 radioligand, SD rat brain tissue homogenate, 30° C., 60 min; read-out: IC50. The procedure:
The tissue obtained from the brain of SD rats was homogenized with a Dounce homogenate system in TME(50 mM Tris, 3 mM MgCl2 and 1 mM EDTA, pH 7.4) at 4° C., and the homogenate was centrifuged at 48,000 g for 30 min. at 4° C. The pellet was resuspended in 5 ml of TME and the suspension was divided into aliquots and stored at −70° C. until its use in the following assay.
The tissue concentrations were determined by Bradford protein analysis, and 148 μl of brain tissue of the required concentration was added to the plate. The plate was covered and placed in a 30° C. incubator for 60 min, and then transformed on GF/B filtermat pretreated in polyethylenimine (PEI) using a cell harvester. Each filter was washed five times and dried at 60° C. for 1 hr. Then, the degree of radioactivity retained by the filter was measured using Wallac Microbeta™ (PerkinElmer Life Sciences, Inc., Massachusetts, U.S.A.) and the activity of the compound for inhibiting CB1 receptor was determined therefrom.
In general, IC50 refers to the point on the concentration scale where inhibition reaches its midpoint. With `CS(=O)(=O)c1c(-c2nnc(C3(C(F)(F)F)CCC3)s2)nn(-c2ccc(Cl)cc2Cl)c1-c1ccc(Br)cc1` [Example 110, 2-(5-(4-bromophenyl)-1-(2,4-dichlorophenyl)-4-(methylsulfonyl)-1H-pyrazol-3-yl)-5-(1-(trifluoromethyl)cyclobutyl)-1,3,4-thiadiazole], the IC50 is 3.64 nM.
The result for `CC(C)(C)c1nnc(-c2nn(-c3ccccc3Cl)c(-c3ccc(Br)cc3)c2S(C)(=O)=O)s1` [Example 112, 2-(5-(4-bromophenyl)-1-(2-chlorophenyl)-4-(methylsulfonyl)-1H-pyrazol-3-yl)-5-tert-butyl-1,3,4-thiadiazole] reads 3.01 nM; that for `CS(=O)(=O)c1c(-c2nnc(C3(C(F)(F)F)CC3)s2)nn(-c2ccccc2Cl)c1-c1ccc(Br)cc1` [Example 113, 2-(5-(4-bromophenyl)-1-(2-chlorophenyl)-4-(methylsulfonyl)-1H-pyrazol-3-yl)-5-(1-(trifluoromethyl)cyclopropyl)-1,3,4-thiadiazole], 2.51 nM; that for `CS(=O)(=O)c1c(-c2nnc(C3(C(F)(F)F)CCC3)s2)nn(-c2ccccc2Cl)c1-c1ccc(Br)cc1` [Example 114, 2-(5-(4-bromophenyl)-1-(2-chlorophenyl)-4-(methylsulfonyl)-1H-pyrazol-3-yl)-5-(1-(trifluoromethyl)cyclobutyl)-1,3,4-thiadiazole], 1.08 nM.
Regarding `CS(=O)(=O)c1c(-c2nnc(C3(c4ccc(Cl)cc4)CC3)s2)nn(-c2ccccc2Cl)c1-c1ccc(Br)cc1` [Example 115, 2-(5-(4-bromophenyl)-1-(2-chlorophenyl)-4-(methylsulfonyl)-1H-pyrazol-3-yl)-5-(1-(4-chlorophenyl)cyclopropyl)-1,3,4-thiadiazole], the IC50 was 1.4 nM.
As to `CCS(=O)(=O)c1c(-c2nnc(C3(c4ccc(Cl)cc4)CC3)s2)nn(-c2ccc(Cl)cc2Cl)c1-c1ccc(Cl)cc1` [Example 119, 2-(5-(4-chlorophenyl)-1-(2,4-dichlorophenyl)-4-(ethylsulfonyl)-1H-pyrazol-3-yl)-5-(1-(4-chlorophenyl)cyclopropyl)-1,3,4-thiadiazole], the IC50 was 2.06 nM.
